In patent publication US10703747B2, “Benzothiophene-based selective mixed estrogen receptor downregulators” (The Board of Trustees of the University of Illnois, priority 2016, dated 2020):
pIC50: −log10 of the molar value.

Target: T1, estrogen receptor (Homo sapiens, UniProt P03372)
T1 sequence (P03372 1-595): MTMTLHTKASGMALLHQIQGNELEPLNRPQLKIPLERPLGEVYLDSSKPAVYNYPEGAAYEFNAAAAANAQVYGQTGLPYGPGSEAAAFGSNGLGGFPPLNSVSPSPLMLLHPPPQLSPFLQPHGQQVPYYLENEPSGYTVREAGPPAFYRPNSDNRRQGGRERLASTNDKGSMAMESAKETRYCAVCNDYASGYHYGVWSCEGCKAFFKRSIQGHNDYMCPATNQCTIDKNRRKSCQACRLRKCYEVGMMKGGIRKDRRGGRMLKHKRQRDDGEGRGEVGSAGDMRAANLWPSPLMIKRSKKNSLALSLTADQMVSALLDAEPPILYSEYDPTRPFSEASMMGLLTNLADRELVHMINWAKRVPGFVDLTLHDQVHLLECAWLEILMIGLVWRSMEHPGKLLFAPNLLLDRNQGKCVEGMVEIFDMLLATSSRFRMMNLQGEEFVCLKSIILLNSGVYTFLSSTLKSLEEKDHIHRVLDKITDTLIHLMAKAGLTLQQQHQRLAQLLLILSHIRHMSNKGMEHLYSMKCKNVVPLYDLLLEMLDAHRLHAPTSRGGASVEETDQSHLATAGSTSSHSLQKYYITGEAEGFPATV
Assay: Western blot, estrogen receptor downregulation in MCF-7:5C cells
Format: cell-based
Parameters: Whole-cell extracts of cultured cells were prepared in lysis buffer; endogenous in cells
Conditions: 24 hours, 1 nM to 1 uM
Protocol: (§1) Whole-cell extracts of cultured cells were prepared in lysis buffer (200 mmol/L Tris, 1% Triton X-100, 5 mmol/L EDTA) with protease and phosphatase inhibitor cocktails (1:50, both from Sigma-Aldrich) after scraping from the culture plates. Protein concentration was measured using the Bradford method (Bio-Rad). Proteins were separated under denaturing conditions and blotted onto nitrocellulose membrane (Bio-Rad) using a wet transfer system (Bio-Rad). Images of blots were acquired on a Bio-Rad ChemiDoc System following incubation with SuperSignal West Dura luminol solution (Thermo Fisher Scientific).
(§2) Fulvestrant at 1 uM concentration was assayed as a positive control.

SMILES	estrogen receptor downregulation (western blot)
O=C(O)/C=C/c1ccc(-c2c(C(=O)c3ccc(O)cc3)sc3cc(O)ccc23)cc1 [Compound 1, (E)-3-(4-(6-hydroxy-2-(4-hydroxybenzoyl)benzo[b]thiophen-3-yl)phenyl)acrylic acid]	estrogen receptor downregulation

Target: T1, estrogen receptor
Assay: Western blot, estrogen receptor downregulation in T47D:neo cells
Format: cell-based
Parameters: Whole-cell extracts of cultured cells were prepared in lysis buffer; endogenous in cells; host or cells: T47D:neo
Conditions: 24 hours, 1 nM to 1 uM
Protocol: as §1, §2

SMILES	estrogen receptor downregulation (western blot)
O=C(O)/C=C/c1ccc(-c2c(C(=O)c3ccc(O)cc3)sc3cc(O)ccc23)cc1 [Compound 1, (E)-3-(4-(6-hydroxy-2-(4-hydroxybenzoyl)benzo[b]thiophen-3-yl)phenyl)acrylic acid]	estrogen receptor downregulation

System: MCF7:5C (Tamoxifen Resistant) cells
Assay: Cell viability of MCF7:5C (tamoxifen resistant), DNA content growth inhibition
Format: cell-based
Conditions: 144 h, Table 1, data normalized to 1 uM fulvestrant, day 6, read-out: MCF-5C growth inhibition IC50
Protocol: Assays Cell Viability of MCF7:5C (Tamoxifen Resistant)
The DNA content of the cells was determined as previously described using a Fluorescent DNA Quantitation kit (cat. No. 170-2480; Bio-Rad Laboratories, Hercules, Calif.). Briefly, five thousand cells were plated per well in 96-well plates, and treatment with indicated concentrations of compounds was started at the same time in each well. On day 6, the cells in the plates were lysed and frozen at −80° C. To measure the total DNA in each well, the plates were allowed to warm to room temperature, incubated with Hoechst dye, and mixed well. The fluorescence was measured using a Synergy H4 Hybrid Multi-Mode Microplate Reader. For each analysis, six replicate wells were used and at least three independent experiments were performed.
FIG. 1 is a graph of the efficacy of Compound 1 against tamoxifen-resistant MCF-7:5 cells normalized to 1 uM fulvestrant. The y-axis is cell survival as a percent of the control and the x-axis is the concentration of the compound measured in nanomolar units.

SMILES	pIC50
O=C(O)/C=C/c1ccc(-c2c(C(=O)c3ccc(O)cc3)sc3cc(O)ccc23)cc1 [Compound 1, (E)-3-(4-(6-hydroxy-2-(4-hydroxybenzoyl)benzo[b]thiophen-3-yl)phenyl)acrylic acid]	> 7.00
O=C(O)/C=C/Oc1ccc(-c2c(C(=O)c3ccc(O)cc3)sc3cc(O)ccc23)cc1 [Compound 2, (E)-3-(4-(6-hydroxy-2-(4-hydroxybenzoyl)benzo[b]thiophen-3-yl)phenoxy)acrylic acid]	> 8.00
O=C(O)/C=C/c1ccc(-c2c(C(=O)c3ccccc3F)sc3cc(O)ccc23)cc1 [Compound 3, (E)-3-(4-(2-(2-fluorobenzoyl)-6-hydroxybenzo[b]thiophen-3-yl)phenyl)acrylic acid]	< 6.70
O=C(O)/C=C/c1ccc(-c2c(C(=O)c3ccccc3Cl)sc3cc(O)ccc23)cc1 [Compound 4, (E)-3-(4-(2-(2-chlorobenzoyl)-6-hydroxybenzo[b]thiophen-3-yl)phenyl)acrylic acid]	< 6.70
O=C(O)/C=C/c1ccc(-c2c(C(=O)c3ccccc3C(F)(F)F)sc3cc(O)ccc23)cc1 [Compound 5, (E)-3-(4-(6-hydroxy-2-(2-(trifluoromethyl)benzoyl)benzo[b]thiophen-3-yl)phenyl)acrylic acid]	< 6.70
Cc1ccccc1C(=O)c1sc2cc(O)ccc2c1-c1ccc(/C=C/C(=O)O)cc1 [Compound 6, (E)-3-(4-(6-hydroxy-2-(2-methylbenzoyl)benzo[b]thiophen-3-yl)phenyl)acrylic acid]	< 6.70
Cc1ccc(F)cc1C(=O)c1sc2cc(O)ccc2c1-c1ccc(/C=C/C(=O)O)cc1 [Compound 7, (E)-3-(4-(2-(5-fluoro-2-methylbenzoyl)-6-hydroxybenzo[b]thiophen-3-yl)phenyl)acrylic acid]	< 6.70
Cc1cc(F)cc(C)c1C(=O)c1sc2cc(O)ccc2c1-c1ccc(/C=C/C(=O)O)cc1 [Compound 8, (E)-3-(4-(2-(4-fluoro-2,6-dimethylbenzoyl)-6-hydroxybenzo[b]thiophen-3-yl)phenyl)acrylic acid]	< 6.70
Cc1cc(F)ccc1C(=O)c1sc2cc(O)ccc2c1-c1ccc(/C=C/C(=O)O)cc1 [Compound 9, (E)-3-(4-(2-(4-fluoro-2-methylbenzoyl)-6-hydroxybenzo[b]thiophen-3-yl)phenyl)acrylic acid]	< 6.70
Cc1cccc(C)c1C(=O)c1sc2cc(O)ccc2c1-c1ccc(/C=C/C(=O)O)cc1 [Compound 10, (E)-3-(4-(2-(2,6-dimethylbenzoyl)-6-hydroxybenzo[b]thiophen-3-yl)phenyl)acrylic acid]	< 6.70
Cc1cc(C)cc(C(=O)c2sc3cc(O)ccc3c2-c2ccc(/C=C/C(=O)O)cc2)c1 [Compound 11, (E)-3-(4-(2-(3,5-dimethylbenzoyl)-6-hydroxybenzo[b]thiophen-3-yl)phenyl)acrylic acid]	< 6.70

Same assay, conditions: 144 h, Table 2, data normalized to 1 uM fulvestrant, day 6, read-out: MCF-5C growth inhibition IC50

SMILES	pIC50
O=C(O)/C=C/c1ccc(-c2c(C(=O)C3CCCCC3)sc3cc(O)ccc23)cc1 [Compound 12, (E)-3-(4-(2-(cyclohexanecarbonyl)-6-hydroxybenzo[b]thiophen-3-yl)phenyl)acrylic acid]	> 6.70
Cc1cc(OC(F)(F)F)ccc1C(=O)c1sc2cc(O)ccc2c1-c1ccc(/C=C/C(=O)O)cc1 [Compound 13, (E)-3-(4-(6-hydroxy-2-(2-methyl-4-(trifluoromethoxy)benzoyl)benzo[b]thiophen-3-yl)phenyl)acrylic acid]	< 6.70
Cc1cc(O)ccc1C(=O)c1sc2cc(O)ccc2c1-c1ccc(/C=C/C(=O)O)cc1 [Compound 14, (E)-3-(4-(6-hydroxy-2-(4-hydroxy-2-methylbenzoyl)benzo[b]thiophen-3-yl)phenyl)acrylic acid]	< 6.70
Cc1cc(O)cc(C)c1C(=O)c1sc2cc(O)ccc2c1-c1ccc(/C=C/C(=O)O)cc1 [Compound 15, (E)-3-(4-(6-hydroxy-2-(4-hydroxy-2,6-dimethylbenzoyl)benzo[b]thiophen-3-yl)phenyl)acrylic acid]	< 6.70
